Like-named read-outs stand apart in the source and are kept apart here.
Experiments:
[1] = Displacement of dansyl-polymyxin from LPS; type: binding, P. aeruginosa; details: read-out: LPS binding affinity: peptide concentration to displace 50% of dansyl-polymyxin B from LPS; Tables 1, 4, 7
Method in brief: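 Peptides titrated into 3 μg/mL P. aeruginosa LPS with 2.5 μM dansyl-polymyxin (~90% site saturation) in 5 mM sodium HEPES, pH 7.0; fluorescence decrease recorded. I50 (50% probe displacement) taken from the x-intercept of a double-reciprocal plot of percent inhibition versus inhibitor concentration.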

[2] = tested on: C. Albicans; type: cell-based, Candida albicans
Method in brief: (§1)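 Growth inhibition was scored after overnight culture at 37 °C in LB with peptide serial dilutions (inoculum 5×10^5 CFU/mL); MICs were the lowest inhibitory concentrations. Test strains were E. coli UB1005 (wild type), C. xerosis (environmental), and C. albicans and S. epidermidis (clinical isolates).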

[3] = tested on: E. coli DC2; type: cell-based, Escherichia coli; details: DC2
Method in brief: (§2)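 Liquid-broth microdilution: overnight LB cultures at 37 °C, diluted to a final inoculum of 5×10^5 CFU/mL with serial peptide dilutions, incubated overnight at 37 °C. MIC (μg/ml) is the lowest concentration that inhibited growth. Therapeutic index is the concentration giving complete hemolysis at 4 h divided by the MIC.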

[4] = tested on: S. aureus SAP0017; type: cell-based, Staphylococcus aureus
Method in brief: (§3)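 Minimum inhibitory concentrations come from a broth rather than agar assay, using LB medium, a final inoculum of 5×10^5 CFU/mL and overnight incubation at 37 °C. Values are in μg/ml.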

[5] = tested on: S. aureus K147; type: cell-based, Staphylococcus aureus
Method in brief: as §3

[6] = tested on: P. aeruginosa H187; type: cell-based, Pseudomonas aeruginosa
Method in brief: as §2

[7] = tested on: E. faecalis; type: cell-based, Enterococcus faecalis
Method in brief: (§4)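 Antimicrobial activity is measured by a liquid-broth assay in LB at 37 °C overnight, starting from 5×10^5 CFU/mL. Values are minimal inhibitory concentrations, i.e. the lowest concentration that stops growth.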

[8] = tested on: B. subtilis; type: cell-based, Bacillus subtilis
Method in brief: as §4

[9] = tested on: S. typhinurium C610; type: cell-based, Salmonella typhinurium
Method in brief: as §4

[10] = tested on: S. typhinurium C587; type: cell-based, Salmonella typhinurium
Method in brief: as §4

[11] = tested on: S. epidermidis; type: cell-based, Staphylococcus epidermidis
Method in brief: as §1

[12] = tested on: human erythrocytes; assay: Hemolytic activity; type: cell-based
Method: Serial dilutions of the peptides in saline were prepared in round bottom microtitre plates using 100 μL volumes. Red blood cells were diluted with saline to 1/25 packed volume of cells and 50 μL added to each well. Plates were incubated with rocking at 37° C., and the concentration required for complete lysis determined visually after 4 h.

[13] = tested on: P. aeruginosa H188; type: cell-based, Pseudomonas aeruginosa
Method in brief: as §4

[14] = tested on: C. xeroses; type: cell-based, Corynebacterium xerosis
Method in brief: as §1

[15] = tested on: E. coli UB1005; type: cell-based, Escherichia coli; details: UB1005
Method in brief: as §1

Row | Structure (SMILES) | IC50 [1] | Minimum Inhibitory Concentration (activity) [2] | Minimum Inhibitory Concentration (activity) [3] | Minimum Inhibitory Concentration (activity) [4] | Minimum Inhibitory Concentration (activity) [5] | Minimum Inhibitory Concentration (activity) ([6]; H187) | Minimum Inhibitory Concentration (activity) [7] | Minimum Inhibitory Concentration (activity) [8] | Minimum Inhibitory Concentration (activity) [9] | Minimum Inhibitory Concentration (activity) [10] | Minimum Inhibitory Concentration (activity) [11] | Hemolytic activity: peptide concentration for 100% lysis of human erythrocytes [12] | Minimum Inhibitory Concentration (activity) ([13]; H188) | Minimum Inhibitory Concentration (activity) [14] | Minimum Inhibitory Concentration (activity) [15] | other results
1 | CC(C)C[C@@H]1NC(=O)[C@H](CCCCN)NC(=O)[C@H](C(C)C)NC(=O)[C@H](CCCCN)NC(=O)[C@@H]2CCCN2C(=O)[C@@H](Cc2ccc(O)cc2)NC(=O)[C@H](CCCCN)NC(=O)[C@H](CC(C)C)NC(=O)[C@H](CCCCN)NC(=O)[C@H](C(C)C)NC(=O)[C@@H](CCCCN)NC(=O)[C@@H]2CCCN2C(=O)[C@@H](Cc2ccc(O)cc2)NC(=O)[C@H](CCCCN)NC1=O [GS14invK1] | 43 µM | 200 µg/mL | 25 µg/mL | >200 µg/mL | >200 µg/mL | 12.5 µg/mL | >200 µg/mL | >200 µg/mL | 62 µg/mL | 150 µg/mL | 100 µg/mL | >800 µg/mL | 9 µg/mL | 6.2 µg/mL | 25 µg/mL | 
2 | CC(C)C[C@@H]1NC(=O)[C@H](CCCCN)NC(=O)[C@H](C(C)C)NC(=O)[C@H](CCCCN)NC(=O)[C@@H]2CCCN2C(=O)[C@@H](Cc2ccc(O)cc2)NC(=O)[C@H](CCCCN)NC(=O)[C@H](CC(C)C)NC(=O)[C@H](CCCCN)NC(=O)[C@H](C(C)C)NC(=O)[C@H](CCCCN)NC(=O)[C@@H]2CCCN2C(=O)[C@@H](Cc2ccc(O)cc2)NC(=O)[C@H](CCCCN)NC1=O [GS14inv] | 14 µM | 25 µg/mL | 0.8 µg/mL | 200 µg/mL | >200 µg/mL | 12.5 µg/mL | 200 µg/mL | >200 µg/mL | 3.1 µg/mL | 50 µg/mL | 25 µg/mL | >800 µg/mL | 6.2 µg/mL | 0.8 µg/mL | 12.5 µg/mL | 
3 | CC(C)C[C@@H]1NC(=O)[C@H](CCCCN)NC(=O)[C@H](C(C)C)NC(=O)[C@@H]2CCCN2C(=O)[C@@H](Cc2ccc(O)cc2)NC(=O)[C@H](CCCCN)NC(=O)[C@H](CC(C)C)NC(=O)[C@H](C(C)C)NC(=O)[C@H](CCCCN)NC(=O)[C@H](CC(C)C)NC(=O)[C@@H]2CCCN2C(=O)[C@@H](Cc2ccc(O)cc2)NC(=O)[C@H](CCCCN)NC(=O)[C@H](C(C)C)NC1=O [GS14na] |  |  | 62 µg/mL | 200 µg/mL | >200 µg/mL |  |  |  | 12.5 µg/mL | 100 µg/mL |  | >800 µg/mL |  |  | 37 µg/mL | Minimum Inhibitory Concentration (activity) ([2]; C. Albicans): 100 µg/mL; Minimum Inhibitory Concentration (activity) ([6]; P. aeruginosa H187): 75 µg/mL; Minimum Inhibitory Concentration (activity) ([7]; E. faecalis): 200 µg/mL; Minimum Inhibitory Concentration (activity) ([8]; B. subtilis): >200 µg/mL; Minimum Inhibitory Concentration (activity) ([11]; S. epidermidis): 50 µg/mL; Minimum Inhibitory Concentration (activity) ([13]; P. aeruginosa H188): 18 µg/mL; Minimum Inhibitory Concentration (activity) ([14]; C. xeroses): 1.5 µg/mL
4 | CC(C)C[C@@H]1NC(=O)[C@H](C(C)C)NC(=O)[C@H](CC(C)C)NC(=O)[C@@H]2CCCN2C(=O)[C@@H](Cc2ccc(O)cc2)NC(=O)[C@H](C(C)C)NC(=O)[C@H](CC(C)C)NC(=O)[C@H](C(C)C)NC(=O)[C@H](CCCCN)NC(=O)[C@H](CCCCN)NC(=O)[C@@H]2CCCN2C(=O)[C@@H](Cc2ccc(O)cc2)NC(=O)[C@H](CCCCN)NC(=O)[C@H](CCCCN)NC1=O [GS14napol] | 98 µM | 37 µg/mL | 4 µg/mL | 200 µg/mL | >200 µg/mL | 50 µg/mL | 75 µg/mL | >200 µg/mL | 25 µg/mL | 50 µg/mL | 25 µg/mL | 800 µg/mL | 9 µg/mL | 1.2 µg/mL | 18 µg/mL | 
5 | CC(C)[C@@H]1NC(=O)[C@H](CCCCN)NC(=O)[C@H](C)NC(=O)[C@@H]2CCCN2C(=O)[C@@H](Cc2ccc(O)cc2)NC(=O)[C@H](C(C)C)NC(=O)[C@@H](CCCCN)NC(=O)[C@H](C)NC(=O)[C@H](CCCCN)NC(=O)[C@H](C(C)C)NC(=O)[C@@H]2CCCN2C(=O)[C@@H](Cc2ccc(O)cc2)NC(=O)[C@H](C)NC(=O)[C@H](CCCCN)NC1=O [L3/A3] | 243 µM | >200 µg/mL | 200 µg/mL | >200 µg/mL | >200 µg/mL | 200 µg/mL | >200 µg/mL | >200 µg/mL | 100 µg/mL | >200 µg/mL | >200 µg/mL | >800 µg/mL | 75 µg/mL | 100 µg/mL | 200 µg/mL | 
6 | CC(C)C[C@@H]1NC(=O)[C@H](CCCCN)NC(=O)[C@H](C)NC(=O)[C@@H]2CCCN2C(=O)[C@@H](Cc2ccc(O)cc2)NC(=O)[C@H](CC(C)C)NC(=O)[C@H](CCCCN)NC(=O)[C@H](C)NC(=O)[C@H](CCCCN)NC(=O)[C@H](CC(C)C)NC(=O)[C@@H]2CCCN2C(=O)[C@@H](Cc2ccc(O)cc2)NC(=O)[C@H](C)NC(=O)[C@@H](CCCCN)NC1=O [V3/A3] | 163 µM | 50 µg/mL | 9 µg/mL | >200 µg/mL | >200 µg/mL | 75 µg/mL | >200 µg/mL | >200 µg/mL | 62 µg/mL | 35 µg/mL | 50 µg/mL | >800 µg/mL | 18 µg/mL | 3.1 µg/mL | 12.5 µg/mL | 
7 | CC(C)C[C@@H]1NC(=O)[C@H](CCCCN)NC(=O)[C@H](CC(C)C)NC(=O)[C@@H]2CCCN2C(=O)[C@@H](Cc2ccc(O)cc2)NC(=O)[C@H](CC(C)C)NC(=O)[C@@H](CCCCN)NC(=O)[C@H](CC(C)C)NC(=O)[C@H](CCCCN)NC(=O)[C@H](CC(C)C)NC(=O)[C@@H]2CCCN2C(=O)[C@@H](Cc2ccc(O)cc2)NC(=O)[C@H](CC(C)C)NC(=O)[C@H](CCCCN)NC1=O [V3/L3] | 46 µM | 4 µg/mL | 3.1 µg/mL | 12.5 µg/mL | 25 µg/mL | 100 µg/mL | 1.5 µg/mL | 9 µg/mL | 15 µg/mL | 100 µg/mL | 1.5 µg/mL | 25 µg/mL | 3.1 µg/mL | 1 µg/mL | 6.2 µg/mL | 
